These results are taken from patent US9708314B2, “Heterocyclic amide compound” (NISSAN CHEMICAL INDUSTRIES, LTD., priority 2013, dated 2017).

What all share (type): in vivo
Assay [1] deals with Echinochloa oryzacola Vasing. Briefly: Test Example 2: herbicidal activity, application during weed generation in submerged conditions. As to conditions: Eighteenth Table; application herbicide amount 320 g/ha. Put shortly: (§1)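 Seeds were sown together in alluvial soil kept under 4 cm of water and grown at 25 °C to 30 °C. Once plants reached the one- to two-leaf stage, the diluted emulsion was applied to the water surface at a predetermined g/ha amount, and effects were rated 0–5 after three weeks.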

The test system of a further assay is Monochoria vaginalis. Described as above. The note with it: Eighteenth Table; application herbicide amount 320 g/ha. The gist of the method:
as §1

A further assay relates to Scirpus juncoides. The description is as above. The note with it: Eighteenth Table; application herbicide amount 320 g/ha. The gist of the method:
as §1

In a further assay the test system is Abutilon theophrasti. Briefly: Test Example 4: herbicidal effect by application to foliage (diluvial soil, plastic box). Put shortly: (§2)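 Greenhouse plants (25° C. to 30° C., 14 d, diluvial soil) receive a foliar spray of water-diluted emulsifiable formulation at defined g/ha. Grading after 3 weeks uses a six-step herbicidal-ratio scale, with 4 covering 70% to <90% and 1 covering 5% to <20%.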

A further assay has as its system Alopecurus myosuroides. Described as above. Put shortly:
as §2

Another assay concerns Amaranthus retroflexus. The assay is described as above. The gist of the method:
as §2

The next assay concerns Apera spica-venti. Described as above. Put shortly: as §2
A further assay concerns Avena fatua. The assay is described as above. Put shortly:
as §2

The next assay deals with Chenopodium album. Described as above. The gist of the method:
as §2

Another assay concerns Digitaria ciliaris. The assay is described as above. The gist of the method:
as §2

Assay [2] relates to Echinochloa crus-galli var. crus-galli. Described as above. The gist of the method:
as §2

The test system of the next assay is Galium spurium. The description is as above. The gist of the method: as §2
For the next assay, the system named is Lolium multiflorum Lam. The assay is described as above. The gist of the method: as §2
The subject of the next assay is Setaria viridis. The description is as above. Put shortly: as §2
The next assay deals with Veronica persica. The description is as above. Put shortly: as §2
[3] abbreviates: application to foliage, application herbicide amount 320 g/ha.

Regarding `Cn1nnnc1NC(=O)c1ccc(C(F)(F)F)n2c(C3CC3)nnc12` [2-005], the “A (Echinochloa oryzicola Vasing.) herbicidal ratio grade” value in [1] is 5 (Herbicidal ratio of 90% or more (almost completely withered)). Moreover, the “C (Monochoria vaginalis) herbicidal ratio grade” value with Monochoria vaginalis is 4 (Herbicidal ratio of 70% or more and less than 90%). The “B (Scirpus juncoides) herbicidal ratio grade” value in the assay on Scirpus juncoides is 3 (Herbicidal ratio of 40% or more and less than 70%). In addition, in the assay on Abutilon theophrasti (setting [3]), the “M: herbicidal effect on Abutilon theophrasti” value is 5 (Herbicidal ratio of 90% or more (almost completely withered)). In addition, the “J: herbicidal effect on Alopecurus myosuroides” value in the assay with Alopecurus myosuroides (setting [3]) was 3 (Herbicidal ratio of 40% or more and less than 70%). The “N: herbicidal effect on Amaranthus retroflexus” value in the assay on Amaranthus retroflexus (setting [3]) is 5 (Herbicidal ratio of 90% or more (almost completely withered)). In addition, the “L: herbicidal effect on Apera spica-venti.” value with Apera spica-venti. (setting [3]) was 4 (Herbicidal ratio of 70% or more and less than 90%). In the assay on Avena fatua (setting [3]), the “I: herbicidal effect on Avena fatua” value is 3 (Herbicidal ratio of 40% or more and less than 70%). The “O: herbicidal effect on Chenopodium album” value in the assay on Chenopodium album (setting [3]) is listed as 5 (Herbicidal ratio of 90% or more (almost completely withered)). The “F: herbicidal effect on Digitaria ciliaris” value in the assay with Digitaria ciliaris (setting [3]) is given as 5 (Herbicidal ratio of 90% or more (almost completely withered)). The “H: herbicidal effect on Echinochloa crus-galli var. crus-galli” value in assay [2] (setting [3]) is given as 5 (Herbicidal ratio of 90% or more (almost completely withered)). Also, the “Q: herbicidal effect on Galium spurium” value in the assay on Galium spurium (setting [3]) was 4 (Herbicidal ratio of 70% or more and less than 90%). Also, the “K: herbicidal effect on Lolium multiflorum Lam.” value in the assay on Lolium multiflorum Lam. (setting [3]) is 2 (Herbicidal ratio of 20% or more and less than 40%). In addition, the “G: herbicidal effect on Setaria viridis” value in the assay on Setaria viridis (setting [3]) is 4 (Herbicidal ratio of 70% or more and less than 90%). Also, in the assay with Veronica persica (setting [3]), the “R: herbicidal effect on Veronica persica” value is 5 (Herbicidal ratio of 90% or more (almost completely withered)).
In the case of `Cn1nnnc1NC(=O)c1ccc(C(F)(F)F)n2c(C3=NOC(C)(C)C3)nnc12` [2-028], the “A (Echinochloa oryzicola Vasing.) herbicidal ratio grade” value in [1] was 5 (Herbicidal ratio of 90% or more (almost completely withered)). Besides, in the assay with Monochoria vaginalis, the “C (Monochoria vaginalis) herbicidal ratio grade” value was 4 (Herbicidal ratio of 70% or more and less than 90%). In the assay with Scirpus juncoides, the “B (Scirpus juncoides) herbicidal ratio grade” value is 4 (Herbicidal ratio of 70% or more and less than 90%). The “M (Abutilon theophrasti) herbicidal effect grade” value in the assay on Abutilon theophrasti (foliage application, 320 g/ha) was 5 (Herbicidal ratio of 90% or more (almost completely withered)). The “J (Alopecurus myosuroides) herbicidal effect grade” value in the assay with Alopecurus myosuroides (foliage application, 320 g/ha) is 4 (Herbicidal ratio of 70% or more and less than 90%). In the assay with Amaranthus retroflexus (foliage application, 320 g/ha), the “N (Amaranthus retroflexus) herbicidal effect grade” value is on record as 5 (Herbicidal ratio of 90% or more (almost completely withered)). Further, in the assay with Apera spica-venti. (foliage application, 320 g/ha), the “L (Apera spica-venti.) herbicidal effect grade” value is recorded as 5 (Herbicidal ratio of 90% or more (almost completely withered)). For the same compound, the “I (Avena fatua) herbicidal effect grade” value in the assay with Avena fatua (foliage application, 320 g/ha) is 4 (Herbicidal ratio of 70% or more and less than 90%). The “O (Chenopodium album) herbicidal effect grade” value with Chenopodium album (foliage application, 320 g/ha) is on record as 5 (Herbicidal ratio of 90% or more (almost completely withered)). In addition, the “F (Digitaria ciliaris) herbicidal effect grade” value in the assay with Digitaria ciliaris (foliage application, 320 g/ha) is on record as 5 (Herbicidal ratio of 90% or more (almost completely withered)). For the same compound, the “H (Echinochloa crus-galli var. crus-galli) herbicidal effect grade” value in assay [2] (foliage application, 320 g/ha) was 5 (Herbicidal ratio of 90% or more (almost completely withered)). In addition, the “Q (Galium spurium) herbicidal effect grade” value with Galium spurium (foliage application, 320 g/ha) was 4 (Herbicidal ratio of 70% or more and less than 90%). Further, the “K (Lolium multiflorum Lam.) herbicidal effect grade” value in the assay with Lolium multiflorum Lam. (foliage application, 320 g/ha) was 4 (Herbicidal ratio of 70% or more and less than 90%). Further, the “G (Setaria viridis) herbicidal effect grade” value with Setaria viridis (foliage application, 320 g/ha) is listed as 5 (Herbicidal ratio of 90% or more (almost completely withered)). Also, in the assay with Veronica persica (foliage application, 320 g/ha), the “R (Veronica persica) herbicidal effect grade” value is given as 5 (Herbicidal ratio of 90% or more (almost completely withered)).
